Reference: ChEMBL document CHEMBL1133388, “4-Aza-2,3-dehydro-4-deoxypodophyllotoxins: simple aza-podophyllotoxin analogues possessing potent cytotoxicity” (Bioorg Med Chem Lett, 2000)
≈ marks a conversion by molar mass, not a printed value.

System: P388
Test: Cytotoxicity against P-388 leukemia cells
Type: functional, cell-based
Details: Mus musculus

SMILES	IC50 [µg/mL]
COc1cc(C2C3=C(O)OCC3=Nc3cc4c(cc32)CCC4)cc(OC)c1OC (centres undefined)	0.0041 (≈ 0.0104 µM)
COc1cc2nc3c(c(-c4ccc5c(c4)OCO5)c2cc1OC)C(=O)OC3	2 (≈ 5.47 µM)
COc1cc(-c2c3c(nc4cc(OC)c(OC)c(OC)c24)COC3=O)cc(OC)c1OC	29 (≈ 65.7 µM)
OC1=C2C(=Nc3cc4c(cc3C2c2ccc3c(c2)OCO3)OCO4)CO1 (centres undefined)	0.03 (≈ 0.0854 µM)
O=C1OCc2nc3cc4c(cc3c(-c3ccccc3)c21)OCO4	60 (≈ 197 µM)
COc1ccc(C2C3=C(O)OCC3=Nc3cc4c(cc32)OCO4)cc1 (centres undefined)	0.13 (≈ 0.385 µM)
COc1cc2nc3c(c(-c4cc(OC)c(OC)c(OC)c4)c2cc1OC)C(=O)OC3	> 100
COc1cc(C2C3=C(O)OCC3=Nc3cc4c(cc32)-c2ccccc2C4)cc(OC)c1OC (centres undefined)	0.92 (≈ 2.08 µM)
COc1cc2c(cc1OC)C(c1cc(OC)c(OC)c(OC)c1)C1=C(O)OCC1=N2 (centres undefined)	4.9 (≈ 11.9 µM)
OC1=C2C(=Nc3cc4c(cc3C2c2ccccc2)OCO4)CO1 (centres undefined)	0.0053 (≈ 0.0172 µM)
COc1ccc(C2c3cc4c(cc3NC3COC(=O)C32)OCO4)cc1OC (centres undefined)	0.048 (≈ 0.13 µM)
COc1cc(C2C3=C(COC3=O)Nc3cc4c(cc32)OCO4)cc(OC)c1OC (centres undefined)	0.0018 (≈ 0.00453 µM)
COc1cccc(-c2c3c(nc4cc5c(cc24)OCO5)COC3=O)c1	> 100
COc1cccc(C2C3=C(O)OCC3=Nc3cc4c(cc32)OCO4)c1 (centres undefined)	0.0053 (≈ 0.0157 µM)
COc1cc([C@@H]2c3cc4c(cc3[C@H](O)[C@H]3COC(=O)[C@H]23)OCO4)cc(OC)c1OC [PODOFILOX]	0.0043 (≈ 0.0104 µM)
COc1cc(-c2c3c(nc4cc5c(cc24)OCO5)COC3=O)cc(OC)c1OC	> 100
COc1cc(-c2c3c(nc4cc5c(cc24)-c2ccccc2C5)COC3=O)cc(OC)c1OC	63 (≈ 143 µM)
COc1cc(-c2c3c(nc4cc5c(cc24)OCO5)CCC3=O)cc(OC)c1OC	71 (≈ 180 µM)
O=C1OCc2nc3cc4c(cc3c(-c3ccc5c(c3)OCO5)c21)OCO4	> 100
COc1cc2c(cc1OC)C(c1ccc3c(c1)OCO3)C1=C(O)OCC1=N2 (centres undefined)	0.77 (≈ 2.1 µM)
COc1ccc(-c2c3c(nc4cc5c(cc24)OCO5)COC3=O)cc1OC	40 (≈ 109 µM)
COc1cc(C2C3=C(O)CCC3=Nc3cc4c(cc32)OCO4)cc(OC)c1OC (centres undefined)	0.028 (≈ 0.0708 µM)
COc1ccc(C2C3=C(O)OCC3=Nc3cc(OC)c(OC)cc32)cc1OC (centres undefined)	0.76 (≈ 1.98 µM)
COc1cc(C2C3=C(O)OCC3=Nc3cc4c(cc32)OCCO4)cc(OC)c1OC (centres undefined)	0.0017 (≈ 0.00413 µM)
COc1cc(-c2c3c(nc4cc5c(cc24)CCC5)COC3=O)cc(OC)c1OC	> 100
COc1cc(C2C3=C(COC3=O)Nc3cc(OC)c(OC)c(OC)c32)cc(OC)c1OC (centres undefined)	2.6 (≈ 5.86 µM)
COc1ccc(-c2c3c(nc4cc(OC)c(OC)cc24)COC3=O)cc1OC	39 (≈ 102 µM)
COc1cc(-c2c3c(nc4cc5c(cc24)OCCO5)COC3=O)cc(OC)c1OC	80 (≈ 195 µM)
COc1ccc(-c2c3c(nc4cc5c(cc24)OCO5)COC3=O)cc1	> 100
